Values quoted from earlier work in patent US20100021614A1, “COMPOSITION FOR PROMOTING BIOABSORPTION OF FLAVONOID, FOOD/BEVERAGE FOR PROMOTING BIOABSORPTION OF FLAVONOID USING THE COMPOSITION, AND METHOD FOR PRODUCTION OF THE FOOD/BEVERAGE” (priority 2006, published 2010).

Conditions: Wakui et al., J. Chromatog., 575, 131-136 (1992)

fraction of the amount administered that is absorbed: 1/300
Structure (SMILES): O=c1cc(-c2ccccc2)oc2cc(O)c(O)c(O)c12 [baicalein]
